Laboratory results: patent publication US11407811B2, “Fusion protein, preparation method therefor and use thereof” (JIANGSU RONGTAI BIOTECH CO., LTD., priority 2017, dated 2022)

Assays:
[1] = system: angiogenesis of chicken embryo chorioallantoic membrane; assay: Chicken embryo chorioallantoic membrane (CAM) angiogenesis assay; assay type: in vivo; conditions: 10 μg (positive control), CAM, 72 hours
Description: In this study, CAM assay was used to investigate the activity of fusion protein I, protein II, protein III, protein IV, and protein V to inhibit angiogenesis in vivo. The study has shown that the biosynthesis rate of collagen reached the maximum on the 8th to 11th day of chicken embryo development, which was the most vigorous stage of angiogenesis, and the body's immune system had not yet been fully established at that time, and thus the chicken embryos developed to the 8th day was selected to be administered. […] The following steps were used.
(1) The White Leghorn chicken embryos on day 6 were cultured in a 37° C. incubator at 60%-70% humidity for two days.
(2) A 1.0 cm×1.0 cm window was drilled above the chicken embryo air sac, and the inner membrane was torn off with forceps to expose the chorioallantoic membrane. Lens paper having a diameter of 5 mm was used as a loading carrier, and was placed on the chorioallantoic membrane of the chicken embryo air sac. Filter paper with PBS was used as a blank group, and the administration group was added with different doses of fusion protein.
(3) The chicken embryo air sac was sealed with a sterile transparent tape, and after culturing at 37° C. for 72 hours, the chicken embryo air sac was opened, and a fixative (formaldehyde:acetone=1:1) was added for fixation for 15 minutes. The chorioallantoic membrane to which the lens paper was adhered was taken out, the distribution of the new blood vessels was observed, and the new blood vessels were counted and photographed. Five replicates were set for each dose and the results were statistically analyzed.

[2] = system: peritoneal capillary permeability in mice; assay: Peritoneal capillary permeability in mice (HAc, Evans blue); assay type: in vivo; conditions: mice, dose 10 mg/kg
Description: The drug was administered once by injection (EDSM needed to be administered twice a day), and the blank model group was given an equal volume of physiological saline and fed normally. On the 5th day, a 5 g/L Evans blue physiological saline solution was injected into the tail vein at […], followed by intraperitoneal injection ([…]) of a HAc solution (6 mL/L) to induce inflammation. After 20 min, the mice were sacrificed by cervical dislocation. 5 mL of physiological saline was intraperitoneally injected, the abdomen was gently rubbed for 2 min, the abdominal cavity was cut, a peritoneal washing solution was collected and centrifuged at 4000 rpm for 10 min, 1 mL of supernatant was taken, and 3 mL of physiological saline was added to obtain 4 mL of dilution. The absorbance OD value of the dilution was measured by an ultraviolet spectrophotometer at a wavelength of 590 nm, and the amount of pigment exudation was expressed by the OD590 nm value, and the peritoneal capillary permeability in mice was examined.

[3] = system: toe swelling in rat induced by carrageenan; assay: Acute inflammation of toe swelling in rat induced by carrageenan; assay type: in vivo; conditions: 10 mg/kg (positive control), rat foot
Description: 80 SD rats were randomly divided into 8 groups with 10 mice for each group. […] The drug was administered once by injection, and the model group was given an equal volume of physiological saline and fed normally. On the third day, 0.1 mL of 1% carrageenan was injected subcutaneously into the right hind toes of the rats to induce inflammation. The foot volume was measured at 1 h, 3 h, 5 h, and 7 h after inflammation. The swelling degree of the foot was calculated according to the following formula: the swelling degree of the foot (mL)=the volume of the foot after inflammation—the volume before inflammation. The number of milliliters of spilled liquid was recorded (method: the protruding point of the right joint was circled with a ballpoint pen and used as a measurement mark, and the right hind feet of the rat were sequentially placed in the volume measuring device, so that the hind limbs were exposed outside the cylinder, and the depth of the immersion was limited to the overlap of the circle and the liquid level. After the foot entered the liquid, the liquid level was raised, and the volume of the spilled liquid was the volume of the right hind foot of the rat, and the normal volume of the right hind foot of each rat is sequentially determined).

mouse spleen lymphocytes = assay: Proliferation of mouse spleen lymphocytes (ConA, MTT); assay type: cell-based; conditions: dose 20 μg/mL
Description: Tris-NH4Cl was used to break the red blood cells, which were allowed to stand in an ice water bath for 4 min and centrifuged (1000 rpm, 5 min), the supernatant was discarded, and the cells were washed twice with sterile PBS.
The cells were statically cultured in a cell incubator at 37° C. for 48 h. After the completion of the culture, 20 μL of MTT was added to each well, and the culture was continued for 4 h. Finally, all the solutions in each well were discarded, 100 μL of DMSO was added to each well, and the mixture was shaken and detected by a microplate reader for OD value at 570 nm. 5 parallels were preformed for per well.

[4] = system: IL-1β production by mouse peritoneal macrophages; assay: IL-1β production by mouse peritoneal macrophages (ELISA); assay type: cell-based; conditions: dose 20 μg/mL
Description: (1) IL-1β production: mice were intraperitoneally injected with 1 mL of broth medium containing 6% starch, and three days later, the mouse peritoneal macrophages were aseptically taken, washed twice with a 1640 medium, and the cell concentration was adjusted to 2×10^6 cells/mL, inoculated into a 24-well culture plate at 1 mL/well, incubated for 3 h in a cell incubator, and shaken once every 30 min, so that the cells were allowed to adhere sufficiently. Then, the cells were washed twice with a culture liquid to remove un-adhered cells. […] The supernatant was taken as a sample for testing activity of IL-1β.
(2) Determination of IL-1β content: the detection was performed by using mouse IL-1β enzyme-linked immunosorbent assay kit from R&D company. According to the instructions of the kit, the procedures were as follows: the reaction well for the test samples and different concentrations of standards were sealed with sealing tapes, respectively, incubation was performed at 37° C. for 90 min; the plate was washed four times; a biotinylated antibody working solution (100 μL/well) was added, the reaction well was sealed with sealing tapes, and incubation was performed at 37° C. for 60 min; the plate was washed four times; an enzyme conjugate working solution (100 μL/well) was added, the reaction well was sealed with sealing tapes, incubation was performed at 37° C. for 30 min; the plate was washed four times; a developer (100 μL/well) was added, incubation was performed at 37° C. for 10 to 20 min, a stop solution (100 μL/well) was added and mixed and the OD450 value was measured.

Molecule | Blood vessel number [1] | Exudation rate (OD590) [2] | Swelling degree 1 h ([3]; 1 h after carrageenan) [mL] | Swelling degree 3 h ([3]; 3 h after carrageenan) [mL] | Swelling degree 5 h ([3]; 5 h after carrageenan) [mL] | Swelling degree 7 h ([3]; 7 h after carrageenan) [mL] | A570 nm/A630 nm (mouse spleen lymphocytes) | PI (%) (mouse spleen lymphocytes) | IL-1β [4] [pg/mL] | PI (%) [4] [%]
Avastin: positive control group in HRCEC and CAM assays [reference compound] | 57 ± 16 |  |  |  |  |  |  |  |  | 
C[C@@H]1C[C@H]2[C@@H]3CCC4=CC(=O)C=C[C@]4(C)[C@@]3(F)[C@@H](O)C[C@]2(C)[C@@]1(O)C(=O)CO [Dex, dexamethasone, reference compound] |  | 0.22 ± 0.03 | 0.21 ± 0.11 | 0.23 ± 0.04 | 0.25 ± 0.09 | 0.27 ± 0.12 | 0.3401 ± 0.1131 | 41.19 | 310.25 ± 20.32 | 63.36
